These are literature values, as cited in article PMC9150182 (ACS Sensors, 2022).

In data set [1] the test system is 5-HT4 isoform g 302Y>F. To be noted: 302Y>F variant, COS7 cells.
Data set [2] concerns 5-HT4 isoform g 302Y>F. To be noted: 302Y>F variant, COS7 cells. This is another data set of the same source.
The target in the next data set is T1, 5-HT1A (Homo sapiens, UniProt P08908).
T1 sequence (P08908 1-422): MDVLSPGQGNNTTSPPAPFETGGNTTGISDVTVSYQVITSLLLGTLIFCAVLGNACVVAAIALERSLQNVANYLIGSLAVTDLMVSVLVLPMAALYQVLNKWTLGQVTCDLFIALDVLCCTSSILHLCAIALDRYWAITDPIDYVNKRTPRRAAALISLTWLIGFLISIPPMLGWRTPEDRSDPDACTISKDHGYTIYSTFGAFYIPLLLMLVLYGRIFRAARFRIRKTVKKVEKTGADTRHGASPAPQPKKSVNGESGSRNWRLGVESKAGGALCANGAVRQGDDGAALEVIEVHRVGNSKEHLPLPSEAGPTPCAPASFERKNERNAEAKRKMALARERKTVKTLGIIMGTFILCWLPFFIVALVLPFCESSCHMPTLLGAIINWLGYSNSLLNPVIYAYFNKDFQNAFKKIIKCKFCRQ
To be noted: yeast, Gpa1/Gαi3 chimera.

For the compound `Cn1cc(C(=O)OCC2CCN(CCNS(C)(=O)=O)CC2)c2ccccc21` [GR113808], the “decrease of affinity to the receptor” value in the data set with 5-HT4 isoform g 302Y>F [1] is 13 fold.

For the compound `NCCc1c[nH]c2ccc(O)cc12` [serotonin], the “effect of variant on serotonin-induced activity” value in the data set on 5-HT4 isoform g 302Y>F [2] is “did not affect serotonin-induced activity”. Besides, the “increase over basal fluorescence after activation with serotonin” value at 5-HT1A is 300%.
